In US4012284A (Societa' Farmaceutici Italia, S.p.A., priority 1962, dated 1977):
Structures can show the parent of a compound that is named as a salt.

Test: Solubility
Assay type: physicochemical

| Structure (SMILES) | solubility (in benzene, aliphatic esters, ethyl ether) | solubility (in butanol, acetone) | solubility (in methanol, ethanol, chloroform) | solubility (in petroleum ether) | solubility in water | solubility (in lower aliphatic alcohols, halogenated hydrocarbon (chloroform), ketones (acetone, methylethylketone)) | solubility (in chloroform, acetone, benzol and non-polar solvents) | solubility (in methanol, aqueous alcohols) |
| --- | --- | --- | --- | --- | --- | --- | --- | --- |
| COc1cccc2c1C(=O)c1c(O)c3c(c(O)c1C2=O)C[C@@](O)(C(C)=O)C[C@@H]3O [Daunomycinone, daunomycinone] | scarcely soluble | less soluble | soluble | insoluble | insoluble | – | – | – |
| COc1cccc2c1C(=O)c1c(O)c3c(c(O)c1C2=O)C[C@@](O)(C(C)=O)C[C@@H]3O[C@H]1C[C@H](N)[C@H](O)[C@H](C)O1 [F.I. 1762 picrate] | – | – | – | – | – | soluble | – | – |
| COc1cccc2c1C(=O)c1c(O)c3c(c(O)c1C2=O)C[C@@](O)(C(C)=O)C[C@@H]3O[C@H]1C[C@H](N)[C@H](O)[C@H](C)O1 [F.I. 1762 hydrochloride] | – | – | – | – | soluble | – | insoluble | soluble |
